According to patent publication US20210177779A1, “COMBINATIONS OF OPIOIDS AND N-ACYLETHANOLAMINES” (SciSparc Ltd., priority 2015, published 2021):

Tests used:
[1] = system: Mice, strain ICR; test: Tail pinch test (modified Haffner's method); conditions: first test 15 min after dosing
[2] = system: Mice, strain ICR; test: Open field (OF) test, 15 minute session of spontaneous activity
Method: Open Field (OF) tests were performed as follows—Fifteen minutes after test item/vehicle administration, mice were placed at the center of an open field box (43×43×40 cm) between 9 AM and 5 PM. On each side of the open field box, two frames placed at 2 and 5 cm height with 16 photocell beams per side ensure movement detection. The computer defined grid lines that divided the open field into two compartments: margin and center. Several variables were recorded during a 15 minute session of spontaneous activity including: time spent moving, traveled distance, time spent and number of visits to the central compartment.

In the case of COc1ccc2c3c1O[C@H]1C(=O)CC[C@@]4(O)[C@@H](C2)N(C)CC[C@]314 [oxycodone], the “Time after administration at which the analgesic effect began” value ([1]; high dose oxycodone 10 mg/kg IP (PEA 25 mg/kg where combined), FIG. 3A) is reported as 15 min, the “Time after administration at which the analgesic effect began” value ([1]; low dose oxycodone 5 mg/kg IP (PEA 25 mg/kg where combined), FIG. 3B) is reported as 15 min and the “Total distance traveled compared to vehicle control group (1M)” value ([2]; oxycodone 10 mg/kg IP (PEA 25 mg/kg where combined), dosed 15 min before test, 6M P<0.001, 8M P<0.05, FIG. 1, associated with irritation level) is reported as “significantly higher”. For the same compound, the “Average animal velocity compared to vehicle control group (1M)” value ([2]; oxycodone 10 mg/kg IP (PEA 25 mg/kg where combined), total distance (cm) / total moving time (sec), 6M P<0.001, 8M P<0.05, FIG. 2, associated with uncontrolled movement and confusion) was “significantly higher”, the “Total distance traveled, effect of oxycodone (dose-dependent)” value ([2]; oxycodone 5 and 10 mg/kg IP compared to vehicle 1M, FIG. 1) was “significantly increased” and the “Average animal velocity, effect of oxycodone (dose-dependent)” value ([2]; oxycodone 5 and 10 mg/kg IP compared to vehicle 1M, FIG. 2) was “significantly increased”.
